# Columns and labels:
# [1] = in vivo; cited from earlier work
# [2] = in vivo; cited from earlier work; remark: listed apart in the source
# [3] = for Free Plasma (f) vs Total Plasma (tp) regression equation / r, free plasma vs total plasma / r, saliva vs total plasma / Saliva (s) vs Total Plasma (tp) regression equation: human; for r, saliva vs total plasma / correlation of free drug or saliva drug concentration with total drug concentration (in words) / Saliva (s) vs Total Plasma (tp) regression equation: in vivo
# Experimental: Protein binding and free drug measurement: An Institutional Review Board (IRB) approved protocol was developed for the assessment of free drug concentrations by measuring both the saliva and free drug in plasma utilizing the tandem mass spectrometric methods for plasma or serum measurement. […] A bigger sample is injected for the free drug measurement (50 uL vs 10 uL for plasma/serum.). Free drug concentrations can be measured by using either equilibrium dialysis or, more commonly, devices with molecular cutoff filters such as the Amicon Centrifree micropartition system (Millipore Corporation, Bedford, Mass.) or the Worthington Diagnostics “ultrafree” system (Worthington, Jacksonville, Fla.). Plasma ultrafiltrate is obtained by centrifuging 1 mL of plasma in Amicon system and then deproteinising as described for serum/plasma previously (15, 40).
# [4] = cited from earlier work
Free Plasma (f) vs Total Plasma (tp) regression equation [3],"r, free plasma vs total plasma [3]","r, saliva vs total plasma [3]",correlation of free drug or saliva drug concentration with total drug concentration (in words) [3],Saliva (s) vs Total Plasma (tp) regression equation [3],Compound,C max. [1],Trough Concentration [2],C min. [1],Vd [1],t ½ [1],Protein Bindings % [4]
–,–,–,–,–,CC(C)(C)NC(=O)[C@@H]1CN(Cc2cccnc2)CCN1C[C@@H](O)C[C@@H](Cc1ccccc1)C(=O)N[C@H]1c2ccccc2C[C@H]1O [Indinavir],10 mg/L,–,–,–,–,–
f = 0.66tp − 4,0.924,0.909,good correlations,–,Cc1cn([C@H]2C=C[C@@H](CO)O2)c(=O)[nH]c1=O [Stavudine],2.0 mg/L,20 ng/mL,0.02 mg/L,1.0 L/kg,1.1 h,–
f = 0.36tp + 483,0.909,0.901,good correlations,–,Cc1ccnc2c1NC(=O)c1cccnc1N2C1CC1 [Nevirapine],20 mg/L,3000 ng/mL,3.0 mg/L,1.2 L/kg,30 h,60%
–,–,0.991,good correlations,s = 0.043tp + 109,CC(C)c1nc(CN(C)C(=O)N[C@H](C(=O)N[C@@H](Cc2ccccc2)C[C@H](O)[C@H](Cc2ccccc2)NC(=O)OCc2cncs2)C(C)C)cs1 [Ritonavir],14 mg/L,1000 ng/mL,1.0 mg/L,0.4 L/kg,4 h,–
–,–,0.777,good correlations,s = 0.05tp + 194,Cc1cccc(C)c1OCC(=O)N[C@@H](Cc1ccccc1)[C@@H](O)C[C@H](Cc1ccccc1)NC(=O)[C@H](C(C)C)N1CCCNC1=O [Lopinavir],–,–,–,–,–,–
–,–,–,–,–,CC(C)Nc1cccnc1N1CCN(C(=O)c2cc3cc(NS(C)(=O)=O)ccc3[nH]2)CC1 [Delavirdine],16 mg/L,3000 to 8000 ng/mL,3.0 mg/L,–,6 h,99%
–,–,–,–,–,CC(C)(C)NC(=O)[C@@H]1C[C@@H]2CCCC[C@@H]2CN1C[C@@H](O)[C@H](Cc1ccccc1)NC(=O)[C@H](CC(N)=O)NC(=O)c1ccc2ccccc2n1 [Saquinavir],0.5 mg/L,15 to 40 ng/mL,–,10 L/kg,12 h,–
–,–,–,–,–,Nc1ccn([C@H]2CC[C@@H](CO)O2)c(=O)n1 [Zalcitabine],<0.025 mg/L,Undetectable,undetectable,0.5 L/kg,2.0 h,<5%
f = 0.19tp + 47,0.749,0.912,good correlations,s = 0.29tp + 20,O=c1[nH]cnc2c1ncn2[C@H]1CC[C@@H](CO)O1 [Didanosine],24 mg/L,100 to 300 ng/mL,–,0.8 L/kg,–,–
–,–,–,–,–,Nc1ccn([C@@H]2CS[C@H](CO)O2)c(=O)n1 [Lamivudine],1.8 mg/L,100 to 1000 ng/mL,–,–,–,–

Compound,Free Plasma (f) vs Total Plasma (tp) regression equation [3],"r, free plasma vs total plasma [3]","r, saliva vs total plasma [3]",correlation of free drug or saliva drug concentration with total drug concentration (in words) [3],Saliva (s) vs Total Plasma (tp) regression equation [3],C max. [1],Trough Concentration [2],C min. [1],Vd [1],t ½ [1],Protein Bindings % [4]
Cc1c(O)cccc1C(=O)N[C@@H](CSc1ccccc1)[C@H](O)CN1C[C@H]2CCCC[C@H]2C[C@H]1C(=O)NC(C)(C)C [Nelfinavir],–,–,0.047,not,s = 0.0026tp + 78,4 mg/L,1000 ng/mL,1.0 mg/L,4 L/kg,5 h,98%
Cc1cn([C@H]2C[C@H](N=[N+]=[N-])[C@@H](CO)O2)c(=O)[nH]c1=O [Zidovudine],f = 0.14tp + 27,0.907,–,good correlations,–,1.8 mg/L,<20 ng/mL,<0.02 mg/L,1.4 L/kg,1.2 h,<5%
